Several values for one entry are separate records, joined by “and”; a condition that tells them apart may be missing. Identical values can stand only once.
Key:
[1] = system: Serotonin (5-Hydroxytryptamine) 5-HT2, Non-Selective; test: Assay 271600 radioligand binding, 5-HT2 non-selective; parameters: species or system Wistar Rat
Description: (§1) The methods employed in this study have been adapted from the scientific literature to maximize reliability and reproducibility. Reference standards were run as an integral part of each assay to ensure the validity of the results obtained. Assays were performed under conditions as described below. Where presented, IC50 values were determined by a non-linear, least squares regression analysis using the Data Analysis Toolbox (MDL Information Systems, San Leandro, Calif., USA). Where inhibition constants (Ki) are presented, the Ki values were calculated using the equation of Cheng and Prusoff (Cheng, Y., Prusoff, W. H., Biochem. Pharmacol. 22:3099-3108, 1973) using the observed IC50 of the tested compound, the concentration of radioligand employed in the assay, and historical values for the KD of the ligand. Where presented, the Hill coefficient (nu), defining the slope of the competitive binding curve, was calculated using the Data Analysis Toolbox.

[2] = biological target: T1, Serotonin (5-Hydroxytryptamine) 5-HT1A (Homo sapiens, UniProt P08908); test: Radioligand binding, 5-HT1A ([3H] 8-OH-DPAT)
T1 construct: expressed in transfected cells; host or cells: CHO cells
T1 sequence (P08908 1-422): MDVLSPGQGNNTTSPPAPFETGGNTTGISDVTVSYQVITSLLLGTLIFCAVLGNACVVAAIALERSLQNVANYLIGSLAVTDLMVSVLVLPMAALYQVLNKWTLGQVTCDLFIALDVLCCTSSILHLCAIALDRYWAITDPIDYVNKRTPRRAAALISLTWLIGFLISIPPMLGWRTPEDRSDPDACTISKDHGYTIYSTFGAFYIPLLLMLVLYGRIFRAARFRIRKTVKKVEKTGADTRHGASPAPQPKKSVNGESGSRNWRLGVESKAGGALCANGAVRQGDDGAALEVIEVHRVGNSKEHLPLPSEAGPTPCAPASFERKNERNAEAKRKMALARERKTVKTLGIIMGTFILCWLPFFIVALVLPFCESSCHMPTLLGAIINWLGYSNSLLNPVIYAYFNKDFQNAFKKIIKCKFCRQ
Description: as §1

[3] = biological target: T2, Serotonin (5-Hydroxytryptamine) 5-HT1B (Rattus norvegicus, UniProt P28564); test: Assay 271200 radioligand binding, 5-HT1B; parameters: species or system Wistar Rat
T2 construct: from tissue
T2 sequence (P28564 whole entry): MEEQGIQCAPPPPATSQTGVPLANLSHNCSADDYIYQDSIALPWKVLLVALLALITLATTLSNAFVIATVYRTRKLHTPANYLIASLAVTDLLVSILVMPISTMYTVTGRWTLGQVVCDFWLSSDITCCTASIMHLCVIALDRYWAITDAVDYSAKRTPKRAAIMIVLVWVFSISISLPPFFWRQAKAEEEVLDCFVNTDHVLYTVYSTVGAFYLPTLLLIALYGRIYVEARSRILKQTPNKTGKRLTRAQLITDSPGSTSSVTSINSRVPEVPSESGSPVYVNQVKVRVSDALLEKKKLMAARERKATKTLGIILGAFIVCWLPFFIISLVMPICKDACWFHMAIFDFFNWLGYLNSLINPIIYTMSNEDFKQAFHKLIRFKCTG
Description: as §1

[4] = system: Aspergillus fumigatus-based mouse asthma model; test: Aspergillus fumigatus-based mouse asthma model, lung resistance; type: in vivo; conditions: 20 mg/ml, intraperitoneally; for Lung resistance: A. fumigatus insult, day 29
Description: Compounds of the invention were also tested for efficiacy in an asthma model.
A cohort of mice was administered intraperitoneal injections of Aspergillus fumigatus on days 0, 14, 26, 27, and 28. Lung resistance was tested on day 29 immediately following a tracheotomy/methacholine procedure. Animals receiving dexamethasone were administered dexamethasone on days 26, 27 and 28. Animals receiving a compound of the invention were administered the compound just hours before the lung resistance test. As a control, all test compounds, as well as dexamethasone, were also administered to mice in the absence of an A. fumigatus insult.

TNF-α = test: Model of LPS-mediated cytokine production, serum TNF-α; type: in vivo, CD1:ICR mice; conditions: for TNFα inhibition, dose-response study: IP, up to a dose of 5 mg/kg
Description: Both ICI-685 and ICI-735 were formulated in water. For the time course study, both drugs were formulated at a concentration of 1 mg/ml and dosed 10 ml/kg to produce a dose of 10 mg/kg. For the dose-response study, drug was formulated at concentrations of 0.05, 0.2 and 0.5 mg/ml and dosed at a volume of 10 ml/kg to produce doses of 0.5, 2 and 5 mg/kg, respectively. Animals were dosed IV or IP.
CD1:ICR mice were obtained from Harlan (Indianapolis, Ind.) at 6 weeks of age. Animals were housed 5 per cage, kept on a 12 hr light dark cycle and fed food and water ad libitum. Animals were tested at 8-10 weeks of age.
Lipopolysaccharide (heat killed E. coli 0127:B5; Sigma Aldrich) was prepared in distilled water at a concentration of 0.025 mg/ml. LPS was dosed at a volume of 10 ml/kg (IP) to produce a final dose of 0.25 mg/kg (approximately 7.5 μg/mouse). Drugs were dosed prior to LPS administration as indicated elsewhere herein. Blood was collected by retro-orbital eye bleed 90 minutes after LPS administration, Serum was prepared from blood and TNF-α and IL-1β levels were measured by using the OPT-EIA mouse TNF-α and IL-1β ELISA kits (BD Biosciences) as per directions of the manufacturer.
The first study was designed to determine the optimal route of administration and the optimal pre-treatment time. Two pre-dose time course studies were conducted. The first (Study 1A) was conducted with 3 pre-dose time points (2, 6 and 18 hrs). The second was conducted at 0, 1 and 2 hr predose time points. For both studies, drug was dosed IP or IV.
Using data from the first study, a second study was conducted that was designed to measure dose-response activity of each compound. Compounds were tested at doses of […]., 2.0 and 5 mg/kg using the route and pre-treatment time that produced the best activity.
Compounds ICI-715, ICI-824, ICI-953 and ICI-954 were formulated in water. For the time course study, drugs were formulated at a concentration of 1 mg/ml and dosed 10 ml/kg to produce a dose of 10 mg/kg. For the dose-response study, drugs were formulated at concentrations of 0.05, 0.2 and 0.5 mg/ml and dosed at a volume of 10 ml/kg to produce doses of 0.5, 2 and 5 mg/kg, respectively. Animals were dosed IV or IP.
Lipopolysaccharide (heat killed E. coli 0127:B5; Sigma Aldrich) was prepared in distilled water at a concentration of 0.025 mg/ml, LPS was dosed at a volume of 10 ml/kg (IP) to produce a final dose of 0.25 mg/kg (approximately […]). Drugs were dosed prior to LPS administration as indicated above. Blood was collected by retro-orbital eye bleed 90 minutes after LPS administration. Serum was prepared from blood and TNF-α and IL-1β levels were measured by using the OPT-EIA mouse TNF-α and IL-1β ELISA kits (BD Biosciences) as per directions of the manufacturer.
The first study was designed to determine the optimal route of administration and the optimal pre-treatment time. One pre-dose time course was conducted (for all compounds) with compounds administered at 0, 1 and 2 hrs prior to LPS treatment. For both studies, drug was dosed IP or IV. The IP study and IV study were conducted on separate days.
Using data from the first study, a second study was conducted that was designed to measure dose-response activity of each compound. Compounds were tested at doses of 0.5, 2.0 and 5 mg/kg using the route and pre-treatment time that produced the best activity.

[5] = system: Serotonin (5-Hydroxytryptamine) 5-HT1, Non-Selective; test: Assay 271000 radioligand binding, 5-HT1 non-selective; parameters: species or system Wistar Rat
Description: as §1

[6] = system: cryopreserved mixed gender human hepatocytes; test: Hepatocyte stability assay; type: in vitro ADME
Description: Test compounds (5 μM) were incubated with cryopreserved mixed gender human hepatocytes pooled from at least 3 donors. Cell viability of hepatocytes was assessed by a Trypan Blue assay prior to the initiation of the stability assay. The final hepatocyte cell density was 1.5×10^6 viable cells/mL, Samples were taken at 2 time points: 0 and 60 minutes. As positive controls, testosterone (20 μM) and 7-hydroxy-coumarin (100 μM) were incubated and sampled at 5 time points: 0, 15, 30, 60, and 120 minutes. Aliquots were removed and combined (50/50) with acetonitrile to terminate the reaction. Samples were mixed for 10 minutes and centrifuged. The supernatants were transferred to vial for analysis by HRMS. In this assay, both test compound and a des-glycine metabolite (M1) are quantified based on peak area response ratios.
The enzymatic activities of the human cryopreserved hepatocytes used in this study were verified in parallel by determining the disappearance of testosterone (expressed as half-life) and the formation of 7-hydroxycoumarin glucuronide and 7-hydroxycoumarin sulfate (expressed as a formation rate).

[7] = system: rheumatoid arthritis (RA) animal model; test: Clinical arthritis score in mice sensitized with collagen injections; type: in vivo
Description: FIGS. 26-28 illustrate the effect of various compounds of the invention on the clinical arthritis score of mice treated with various compounds of the invention.
Additional testing of the effectiveness of compounds ICI-685, ICI-735 and ICI-847 at higher and lower concentrations were conducted, as illustrated in FIG. 29.

[8] = T = 60 minutes, 5 μM test compound

Row | SMILES | % INHIBITION ([1]; 0.1 μM) | % INHIBITION ([1]; 10 μM) | inhibition at 0.1 µM ([2]; 0.1 μM) | inhibition at 10 µM ([2]; 10 μM) | inhibition at 0.1 µM ([3]; 0.1 μM) | inhibition at 10 µM ([3]; 10 μM) | Lung resistance [4] | % INHIBITION ([5]; 0.1 μM) | % INHIBITION ([5]; 10 μM) | TNFα inhibition, dose-response study (TNF-α) | other results
1 | FC(F)(F)c1ccc2c(c1)N(CCCN1CCNCC1)c1ccccc1S2 [ICI-685] | 31% | 82% | 1% | 26% | 6% | 10% | 12 cm H2O/ml/s | −3% | 32% | – | inhibition at 10 mg/kg (TNF-α; Mus musculus, second pre-dose time course study, 10 mg/kg, read-out: inhibition of TNFα): 70%; inhibition of TNFα levels (TNF-α; first time course, 2 hr pretreatment period, IV administration, 10 mg/kg): did not inhibit; inhibition of LPS-stimulated TNFα secretion (TNF-α; pre-dose time course, 10 mg/kg, IV or IP): inhibited
2 | C[C@@H]1C[C@H]2[C@@H]3CCC4=CC(=O)C=C[C@]4(C)[C@@]3(F)[C@@H](O)C[C@]2(C)[C@@]1(O)C(=O)CO [Dexamethasone, reference compound] | – | – | – | – | – | – | 7.75 cm H2O/ml/s | – | – | – | –
3 | NCCN1CCN(CCCCN2c3ccccc3Sc3ccc(C(F)(F)F)cc32)CC1 [ICI-953] | 16% | 71% | – | – | – | – | – | −10% | −1% | ineffective | % INHIBITION ([2]; 0.1 μM): 5%; % INHIBITION ([2]; 10 μM): 54%; % INHIBITION ([3]; 0.1 μM): 7%; % INHIBITION ([3]; 10 μM): 2%
4 | NCC(=O)NCCN1CCN(CCCCN2c3ccccc3Sc3ccc(C(F)(F)F)cc32)CC1 [ICI-954] | 21% | 89% | – | – | – | – | – | −3% | 18% | ineffective | % INHIBITION ([2]; 0.1 μM): 6%; % INHIBITION ([2]; 10 μM): 56%; % INHIBITION ([3]; 0.1 μM): 4%; % INHIBITION ([3]; 10 μM): −1%
5 | CN(C)S(=O)(=O)c1ccc2c(c1)N(CCCN1CCN(CCN)CC1)c1ccccc1S2 [ICI-715] | 18% | 83% | 5% | 87% | 23% | 90% | – | 15% | 62% | – | inhibition of TNFα (TNF-α; dose-response, all doses tested 0.5 to 5 mg/kg, IV): ≥ 50%
6 | CC(C)(N)C(=O)NCCN1CCN(CCCN2c3ccccc3Sc3ccc(C(F)(F)F)cc32)CC1 [Compound 36a, 2-Amino-2-methyl-N-(2-(4-(3-(2-(trifluoromethyl)-10H-phenothiazin-10-yl)propyl)piperazin-1-yl)ethyl)propanamide] | – | – | – | – | – | – | – | – | – | – | Relative Level (%) ([6]; T = 0 minutes, 5 μM test compound): 97.3% and 102.8%; Peak Areas [6, 8]: 3.42E+06 and 3.82E+06; Relative Level (%) [6, 8]: 99.0% and 109.1%; susceptibility to the metabolic transformation to the metabolite M1 ([6]; compared with ICI-735): less susceptible
7 | NCCCN1CCC(CCCN2c3ccccc3Sc3ccc(C(F)(F)F)cc32)CC1 [ICI-847] | 3% | 82% | -8% | 74% | -5% | -33% | 7.25 cm H2O/ml/s | −11% | −7% | – | effectiveness at treating RA compared with dexamethasone ([7]; 30 mg/kg, FIG. 29): as effective for the length of the study as is dexamethasone; clinical arthritis score compared with dexamethasone ([7]; orally 10 mg/kg daily, about 21 days, FIG. 26): as effective as dexamethasone; decreasing lung resistance compared with dexamethasone [4]: at least as effective as dexamethasone
8 | FC(F)(F)c1ccc2c(c1)N(CCCC1CCNCC1)c1ccccc1S2 [ICI-824] | 28% | 84% | 2% | 53% | 2% | 6% | – | −14% | 11% | ineffective | –
